Source: ChEMBL document CHEMBL4371026, “Prodrugs of the cancer cell selective anti-cancer agent (Z)-2-(1H-indol-3-yl)-3-(isoquinolin-5-yl)acrylonitrile (A131) are orally efficacious in a mouse model of resistant colon cancer” (Bioorg Med Chem Lett, 2019)
Active and inactive are the calls of the source. The rule behind the calls is not given here.

Experiments:
BJ [1] = assay: Induction of autophagy in transformed human BJ cells assessed as increase in LC3-2 to LC3-1 ratio at 5 uM after 24 hrs by Western blot analysis relative to control; type: functional
BJ [2] = assay: Induction of mitosis in transformed human BJ cells assessed as increase in pH3 Ser10 expression at 5 uM after 24 hrs by Western blot analysis relative to control; type: functional
HCT-15 [3] = assay: Anticancer activity against paclitaxel-resistant human HCT15 cells xenografted in BALB/c athymic mouse assessed as tumor growth inhibition at 20 mg/kg, ip administered twice a day for 12 days; type: functional, organism-based
HCT-15 [4] = assay: Anticancer activity against paclitaxel-resistant human HCT15 cells xenografted in BALB/c athymic mouse assessed as tumor growth inhibition at 40 mg/kg, iv administered thrice every 4 days; type: functional, organism-based
HCT-15 [5] = assay: Anticancer activity against paclitaxel-resistant human HCT15 cells xenografted in BALB/c athymic mouse assessed as tumor volume at 40 mg/kg, iv administered thrice every 4 days measured on day 9 (reference value: 546 +/- 87 mm3); type: functional
HCT-15 [6] = assay: Anticancer activity against paclitaxel-resistant human HCT15 cells xenografted in BALB/c athymic mouse assessed as tumor volume at 40 mg/kg, iv administered thrice every 4 days measured on day 3 (reference value: 180 +/- 36 mm3); type: functional
HCT-15 [7] = assay: Anticancer activity against paclitaxel-resistant human HCT15 cells xenografted in BALB/c athymic mouse assessed as tumor volume at 40 mg/kg, iv administered thrice every 4 days measured on day 5 (reference value: 329 +/- 45 mm3); type: functional
HCT-15 [8] = assay: Anticancer activity against paclitaxel-resistant human HCT15 cells xenografted in BALB/c athymic mouse assessed as tumor volume at 40 mg/kg, iv administered thrice every 4 days measured on day 7 (reference value: 495 +/- 109 mm3); type: functional
HCT-15 [9] = assay: Anticancer activity against paclitaxel-resistant human HCT15 cells xenografted in BALB/c athymic mouse assessed as tumor volume at 40 mg/kg, iv administered thrice every 4 days measured on day 12 (reference value: 779 +/- 144 mm3); type: functional
HCT-15 [10] = assay: Anticancer activity against paclitaxel-resistant human HCT15 cells xenografted in BALB/c athymic mouse assessed as tumor volume at 40 mg/kg, iv administered thrice every 4 days measured on day 1 (reference value: 110 +/- 11 mm3); type: functional
HCT-15 [11] = assay: Anticancer activity against paclitaxel-resistant human HCT15 cells xenografted in BALB/c athymic mouse assessed as tumor volume at 20 mg/kg, ip administered twice a day for 12 days measured on day 7 (reference value: 495 +/- 109 mm3); type: functional
HCT-15 [12] = assay: Anticancer activity against paclitaxel-resistant human HCT15 cells xenografted in BALB/c athymic mouse assessed as tumor volume at 20 mg/kg, ip administered twice a day for 12 days measured on day 12 (reference value: 779 +/- 144 mm3); type: functional
HCT-15 [13] = assay: Anticancer activity against paclitaxel-resistant human HCT15 cells xenografted in BALB/c athymic mouse assessed as tumor volume at 20 mg/kg, ip administered twice a day for 12 days measured on day 9 (reference value: 546 +/- 87 mm3); type: functional
HCT-15 [14] = assay: Anticancer activity against paclitaxel-resistant human HCT15 cells xenografted in BALB/c athymic mouse assessed as tumor volume at 20 mg/kg, ip administered twice a day for 12 days measured on day 5 (reference value: 329 +/- 45 mm3); type: functional
HCT-15 [15] = assay: Anticancer activity against paclitaxel-resistant human HCT15 cells xenografted in BALB/c athymic mouse assessed as tumor volume at 20 mg/kg, ip administered twice a day for 12 days measured on day 3 (reference value: 180 +/- 36 mm3); type: functional
HCT-15 [16] = assay: Anticancer activity against paclitaxel-resistant human HCT15 cells xenografted in BALB/c athymic mouse assessed as tumor volume at 20 mg/kg, ip administered twice a day for 12 days measured on day 1 (reference value: 110 +/- 11 mm3); type: functional
HCT-15 [17] = assay: Anticancer activity against paclitaxel-resistant human HCT15 cells xenografted in BALB/c athymic mouse assessed as formation of misaligned chromosomes with multipolar spindles at 40 mg/kg, ip or 80 mg/kg, po administered twice a day for 12 days by immunohistochemical analysis; type: functional, organism-based
HCT-15 [18] = assay: Anticancer activity against paclitaxel-resistant human HCT15 cells xenografted in BALB/c athymic mouse assessed as tumor growth inhibition at 40 mg/kg, ip administered twice a day for 12 days; type: functional, organism-based
HCT-15 [19] = assay: Anticancer activity against paclitaxel-resistant human HCT15 cells xenografted in BALB/c athymic mouse assessed as cell death at 40 mg/kg, ip or 80 mg/kg, po administered twice a day for 12 days by TUNEL staining based assay; type: functional, organism-based

Cn1cc(/C(C#N)=C/c2cccc3cnccc23)c2ccccc21
fold change (FC) (BJ [1]): 1.6 | fold change (FC) (BJ [2]): 1.1

N#C/C(=C\c1cccc2cnccc12)c1c[nH]c2ccccc12
TGI (HCT-15 [3]): Active

CC(=O)O[C@H]1C(=O)[C@@]2(C)[C@H]([C@H](OC(=O)c3ccccc3)[C@]3(O)C[C@H](OC(=O)[C@H](O)[C@@H](NC(=O)c4ccccc4)c4ccccc4)C(C)=C1C3(C)C)[C@]1(OC(C)=O)CO[C@@H]1C[C@@H]2O [PACLITAXEL]
TGI (HCT-15 [4]): Active | Activity (HCT-15 [5]): 409 mm3 | Activity (HCT-15 [6]): 152 mm3 | Activity (HCT-15 [7]): 288 mm3 | Activity (HCT-15 [8]): 321 mm3 | Activity (HCT-15 [9]): 638 mm3 | Activity (HCT-15 [10]): 119 mm3

Cl.N#C/C(=C\c1cccc2cnccc12)c1c[nH]c2ccccc12
Activity (HCT-15 [11]): 204 mm3 | Activity (HCT-15 [12]): 289 mm3 | Activity (HCT-15 [13]): 225 mm3 | Activity (HCT-15 [14]): 153 mm3 | Activity (HCT-15 [15]): 125 mm3 | Activity (HCT-15 [16]): 116 mm3

CN1CCN(CC(=O)n2cc(/C(C#N)=C/c3cccc4cnccc34)c3ccccc32)CC1
Activity (HCT-15 [17]): Active | TGI (HCT-15 [18]): Active | Activity (HCT-15 [19]): Active

CC(C)(C)OC(=O)N1CCC(C(=O)n2cc(/C(C#N)=C/c3cccc4cnccc34)c3ccccc32)CC1
fold change (FC) (BJ [1]): 5.2 | fold change (FC) (BJ [2]): 16.2

CC(=O)NCCC(=O)n1cc(/C(C#N)=C/c2cccc3cnccc23)c2ccccc21
fold change (FC) (BJ [1]): 2.3 | fold change (FC) (BJ [2]): 2.8

CCN(CC)C(=O)n1cc(/C(C#N)=C/c2cccc3cnccc23)c2ccccc21
fold change (FC) (BJ [1]): 0.9 | fold change (FC) (BJ [2]): 0.6
